Assay results as given in patent US8822171B1, “Methods for screening for inhibitors of tau phosphorylation by casein kinase I” (priority 2003, dated 2014).

System: Rat and human cortical neurons
Experiment: Amyloid beta treatment of neurons; phosphotyrosine immunoprecipitation and Western blot with tau antibodies
Assay type: cell-based
Conditions: neurons treated with Aβ peptide for 1-10 min
Method: Rat and human cortical neurons were treated with Aβ peptide (25-35) or reverse Aβ peptide (35-25) for 1-10 min. Proteins containing phosphotyrosine were immunoprecipitated and separated by SDS-PAGE. Western blots of heat-stable extracts of neuronal cultures and immunoprecipitates were probed with antibodies to tau.

Substance: Aβ peptide (25-35) (GSNKGAIIGLM; Amyloid-beta protein 42; UniProt P05067 696-706, looked up, fragment) [amyloid β-peptide fragment 25-35 used to treat rat and human cortical neurons]
- increase in phosphotyrosine in tau relative to basal level: approximately four times the basal level
- tyrosine phosphorylation of neuronal proteins including tau: increased tyrosine phosphorylation
